Assay results reported in US8809010B2, “Method for prophylactic treatment of alzheimer's disease using inhibitors of glutaminyl cyclase and glutamate cyclases” (Probiodrug AG, priority 2003, dated 2014).
Read-outs that look alike come from different tables or passages of the source. One block for each compound: values may come before it. Peptide text beside a SMILES is read from it.

Experiments:
[1] = test system: QC in porcine pituitary homogenate; test: Formation of [pGlu3]Aβ3-11a in porcine pituitary homogenate, MALDI-TOF; type: biochemical
Description: (§1) Matrix-assisted laser desorption/ionization mass spectrometry was carried out using the Hewlett-Packard G2025 LD-TOF System with a linear time of flight analyzer. […] Samples (5 μl) were mixed with equal volumes of the matrix solution. For matrix solution we used DHAP/DAHC, prepared by solving 30 mg 2′,6′-dihydroxyacetophenone (Aldrich) and 44 mg diammonium hydrogen citrate (Fluka) in 1 ml acetonitrile/0.1% TFA in water (1/1, v/v). A small volume (≈1 μl) of the matrix-analyte-mixture was transferred to a probe tip and immediately evaporated in a vacuum chamber (Hewlett-Packard G2024A sample prep accessory) to ensure rapid and homogeneous sample crystallization.

human QC [2] = molecular target: T1, human QC (Homo sapiens, UniProt Q16769); test: Enzyme inactivation/reactivation procedures; type: biochemical; details: extensive dialysis against 5 mM chelator
T1 construct: The cDNA of the mature QC starting with codon 38 was fused in frame with the plasmid encoded 6× histidine tag; 6xHis; made in house; host or cells: Pichia pastoris X33 (pPICZαB, secreted); also E. coli M15 (pQE-31)
T1 sequence (Q16769 29-361): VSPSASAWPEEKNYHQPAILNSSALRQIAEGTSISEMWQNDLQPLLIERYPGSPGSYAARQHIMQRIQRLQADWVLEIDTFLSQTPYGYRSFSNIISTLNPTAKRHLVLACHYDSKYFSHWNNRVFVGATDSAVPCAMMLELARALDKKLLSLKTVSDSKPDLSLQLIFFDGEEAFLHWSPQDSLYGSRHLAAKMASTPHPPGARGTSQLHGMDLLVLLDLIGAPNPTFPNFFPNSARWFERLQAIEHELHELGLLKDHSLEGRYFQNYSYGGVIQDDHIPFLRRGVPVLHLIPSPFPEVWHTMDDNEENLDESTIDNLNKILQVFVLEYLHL

mammalian QC = mammalian QC (Bos taurus, UniProt Q28120); details: cited from earlier work
mammalian QC, sequence (Q28120 29-361): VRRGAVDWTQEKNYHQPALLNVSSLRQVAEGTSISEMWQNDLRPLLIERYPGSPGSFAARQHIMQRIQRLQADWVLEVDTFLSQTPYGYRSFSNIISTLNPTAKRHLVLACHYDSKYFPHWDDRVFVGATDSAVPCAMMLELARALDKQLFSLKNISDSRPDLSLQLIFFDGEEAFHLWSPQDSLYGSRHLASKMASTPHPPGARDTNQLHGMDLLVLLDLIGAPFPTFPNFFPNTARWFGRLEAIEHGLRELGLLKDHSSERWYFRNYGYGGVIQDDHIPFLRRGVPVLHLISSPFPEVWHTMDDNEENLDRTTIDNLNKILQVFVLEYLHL

human QC [3] = molecular target: T1, human QC; details: cited from earlier work
human QC [4] = molecular target: T1, human QC; test: QC inhibitor assay (fluorometric, H-Gln-AMC / H-Gln-βNA, pyroglutamyl aminopeptidase coupled); type: biochemical
human QC [5] = molecular target: T1, human QC; test: Continuous spectrophotometric QC assay (glutamate dehydrogenase coupled), substrate kinetics; type: biochemical; details: Human QC; for Ki* (mM): for substrate inhibition;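 for all read-outs here: initial rates read on a microplate reader at 30 °C, with enzyme activity quantified against an ammonia calibration curve under the same assay conditions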
Description: The initial velocities were evaluated and the enzymatic activity was determined from a standard curve of ammonia under assay conditions. All samples were measured at 30° C., using either the [sequence]luor Plus or the Sunrise (both from TECAN) reader for microplates. Kinetic data was evaluated using GraFit software.

human QC [6] = molecular target: T1, human QC; test: Qualitative substrate conversion (MALDI-TOF / fluorometric); type: biochemical
Description: as §1
In order to further investigate the specificity and selectivity of the QCs, peptides were synthesized comprising either a modified N-terminal glutaminyl residue or a modified amino acid in the second position. […] Due to the cyclization of the glutaminyl residue or its analog, respectively, a mass difference of the substrate and the product of catalysis is detected. In cases of ammonia liberation of one mole per mole of substrate, the conversion was also analyzed quantitatively using the spectrophotometric assay.

[7] = 0.05M Tris-HCl, pH 8.0, 0.5 M KCl

Ki (human QC [4]): 6100 nM
SMILES: S=C(NCCCn1ccnc1)NCc1ccc2c(c1)OCO2 [Example 47]

Ki (human QC [4]): 1530 nM
SMILES: N#CN=C(NCCCn1ccnc1)NCc1ccc2c(c1)OCO2 [Example 81]

Res. Act. (%) (human QC [4]; residual QC activity with inhibitor): 19.0%
SMILES: O=C(NCCCn1ccnc1)Nc1cc(F)cc2c1OCOC2 [Example 97]

kcat (human QC [5]): 5.3 ± 0.1 s⁻¹
SMILES: Cc1cc(=O)oc2cc(NC(=O)[C@@H](N)CCC(N)=O)ccc12 [H-Gln-AMC]

kcat (human QC [5]): 76.3 ± 0.7 s⁻¹
SMILES: C[C@H](NC(=O)[C@H](C)NC(=O)[C@@H](N)CCC(N)=O)C(N)=O [H-Gln-Ala-Ala-NH2] (H-Gln-Ala-Ala-NH2)

kcat (human QC [5]): 40.1 ± 0.9 s⁻¹
SMILES: C[C@H](NC(=O)[C@@H](N)CCC(N)=O)C(N)=O [H-Gln-Ala-NH2] (H-Gln-Ala-NH2)

kcat (human QC [5]): 57.2 ± 0.4 s⁻¹ | Ki (mM) (human QC [5]; 0.05M Tris-HCl, pH 8.0): n.i. | kcat (human QC [5]; 0.05M Tris-HCl, pH 8.0): 54.4 ± 0.5 s⁻¹ | Ki (mM) (human QC [5]; [7]): n.i. | kcat (human QC [5]; [7]): 47.6 ± 0.6 s⁻¹ | Ki* (mM) (human QC [5]): n.i.
SMILES: C[C@H](NC(=O)[C@@H](N)CCC(N)=O)C(=O)O [H-Gln-Ala-OH] (H-Gln-Ala-OH)

kcat (human QC [5]): 20.7 ± 0.2 s⁻¹ | Ki* (mM) (human QC [5]): n.i.
SMILES: NC(=O)CC[C@H](NC(=O)[C@@H](N)CCC(N)=O)C(=O)O [H-Gln-Gln-OH] (H-Gln-Gln-OH)

kcat (human QC [5]): 24.7 ± 0.2 s⁻¹ | Ki (mM) (human QC [5]; 0.05M Tris-HCl, pH 8.0): n.i. | kcat (human QC [5]; 0.05M Tris-HCl, pH 8.0): 21.4 ± 0.3 s⁻¹ | Ki (mM) (human QC [5]; [7]): n.i. | kcat (human QC [5]; [7]): 18.9 ± 0.5 s⁻¹ | Ki* (mM) (human QC [5]): n.i.
SMILES: NC(=O)CC[C@H](N)C(=O)N[C@@H](CCC(=O)O)C(=O)O [H-Gln-Glu-OH] (H-Gln-Glu-OH)

conversion by human QC (human QC [6]): converted
SMILES: CC(C)C[C@H](NC(=O)[C@H](CCCNC(=N)N)NC(=O)[C@H](CCCCNC(=O)[C@@H](N)CCC(N)=O)NC(=O)[C@@H](N)CCC(N)=O)C(=O)N[C@@H](C)C(N)=O [H-Gln-Lys(Gln)-Arg-Leu-Ala-NH2] (H-QK(Gln)RLA-NH2)

kcat (human QC [5]): 12.8 ± 0.5 s⁻¹ | Ki (mM) (human QC [5]; 0.05M Tris-HCl, pH 8.0): n.i. | kcat (human QC [5]; 0.05M Tris-HCl, pH 8.0): 12.8 ± 0.3 s⁻¹ | Ki (mM) (human QC [5]; [7]): n.i. | kcat (human QC [5]; [7]): 12.2 ± 0.1 s⁻¹ | Ki* (mM) (human QC [5]): n.i.
SMILES: NC(=O)CC[C@H](N)C(N)=O [H-Gln-NH2]
conversion by human QC (human QC [6]): converted glutaminamide to products readily

KM (μM) (human QC [5]): n.r. | kcat (s^−1) (human QC [5]): n.r. | conversion by human QC (human QC [6]): no reactivity
SMILES: NC(=O)CC[C@H](N)C(=O)O [H-Gln-OH]

kcat (human QC [5]): 6.7 ± 0.2 s⁻¹ | Ki* (mM) (human QC [5]): n.i.
SMILES: CC(C)(C)OC(=O)C(N)CCC(N)=O (stereo not drawn) [H-Gln-OtBu]

The next lines start with the compound.

SMILES: c1cnc2c(c1)ccc1cccnc12 [1,10-phenanthroline]
formation of [pGlu^3]Aβ3-11a from [Gln^3]Aβ1-11a, consecutive catalysis by DP IV and QC ([1]; pituitary homogenate with added DPIV from porcine kidney): not formed | formation of [pGlu^3]Aβ3-11a from [Gln^3]Aβ3-11a ([1]; porcine pituitary homogenate): inhibited | inactivation of human QC (human QC [2]): almost completely inactivated | inhibition of mammalian QC (mammalian QC): Inhibition | inhibition of human QC (human QC [3]): inhibited

SMILES: NCCCn1ccnc1 [1-aminopropyl-imidazole]
inhibition of human QC (human QC [4]): one of the less effective compounds of this group

SMILES: O=C(c1ccccc1)n1ccnc1 [1-benzoylimidazole]
inhibition of human QC (human QC [4]): loss of inhibitory quality

SMILES: c1ccc(Cn2ccnc2)cc1 [1-benzylimidazole]
inhibition of human QC (human QC [4]): one of the most effective QC inhibitors

SMILES: Cn1ccnc1 [1-methylimidazole]
inhibition of human QC (human QC [4]): improved binding to the active site

SMILES: C=Cn1ccnc1 [1-vinylimidazole]
inhibition of human QC (human QC [4]): improved binding to the active site

SMILES: Cc1nc2ccccc2[nH]1 [2-methyl-benzimidazole]
inhibition of human QC (human QC [4]): the inhibition constant drops about one order of magnitude

SMILES: Cn1cncc1CCN [3-methyl-4-histamine]
inhibition of human QC (human QC [4]): considerable improvement of efficacy

SMILES: O=C(O)CN(CCN(CC(=O)O)CC(=O)O)CC(=O)O [EDTA]
inhibition of mammalian QC (mammalian QC): did not inhibit

SMILES: COc1ccc(NC(=S)NCCCn2ccnc2)cc1 [Example 11, 1-(3-(1H-imidazol-1-yl)propyl)-3-(4-methoxyphenyl)thiourea]
Ki (human QC [4]): 700 nM

SMILES: CCOc1ccc(NC(=S)NCCCn2ccnc2)cc1 [Example 27, 1-(3-(1H-imidazol-1-yl)propyl)-3-(4-ethoxyphenyl)thiourea]
Ki (human QC [4]): 890 nM
